“And” between values parts separate entries of the source, which are not always exact repeats. Identical values can stand only once.
The compounds below were run against Nonstructural protein 3 (Zika virus, UniProt A0A024AXB9) (assay: Functional biochemical assay to identify treatments for viral infectious disease that targets Zika NS2B-NS3 protease. Utilizing a direct enzyme activity measurement method, reading the fluorescence intensity is used to characterize the relative potency of inhibitors as IC50.).
Set-up: species or system PRVABC59

Chain of Nonstructural protein 3 (A0A024AXB9 whole entry): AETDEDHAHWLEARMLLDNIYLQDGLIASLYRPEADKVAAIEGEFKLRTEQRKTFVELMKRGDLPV

SMILES	IC50
Cc1c(C(=O)Nc2ccc3c(c2)CCCC(=O)N3)cc(C2CC2)n1C	> 25 µM
Cc1cc(C=O)c(C)n1-c1cccc(C(=O)N2CCN(C)CC2)c1	> 99.5 µM
NCc1cccc(NC(=O)[C@@H](NC(=O)OCc2ccccc2)C2CCN(S(=O)(=O)Cc3ncon3)CC2)c1	> 99.5 µM
CCCCN1Cc2ccc(NS(=O)(=O)c3ccc(Cl)cc3C(=O)O)cc2C1	> 99.5 µM
Clc1cc(CCc2cccc(-c3nn[nH]n3)c2)c2cn[nH]c2c1	> 99.5 µM
O=C(NC1CCCCC1)c1cc(Cl)ccc1NS(=O)(=O)c1ccc(Oc2ccccc2Cl)cc1	> 99.5 µM
O=C(Nc1ccc2c(c1)CNC2)c1nc2ccccc2s1	> 25 µM
O[C@@H]1CN(Cc2c[nH]c3ccccc23)CC[C@@H]1c1ccccc1	47.4 µM
COC(=O)c1ccc2[nH]cc(Cc3ccc(-c4nnn[nH]4)cc3)c2c1	> 99.5 µM
Cc1cc(C=O)c(O)c(C(=O)N2CC[C@H](CN(C)C)C2)c1	> 99.5 µM
N#CC1(S(=O)(=O)N2CCC([C@H](NC(=O)OCc3ccccc3)C(=O)Nc3cccc(CN)c3)CC2)CCC1	97.6 µM
Cc1ccc2c(c1)CN(C(=O)c1ccc(C3(CN)CC3)cc1)C(C)(C)C2	> 99.5 µM
CC1(C)CNC[C@H](C(=O)Nc2cccc(CN)c2)C1	> 99.5 µM
CCn1c(=O)c(N2C[C@H](C)C[C@H]2c2ccccc2)nc2ccccc21	> 99.5 µM
O=C(Nc1ccc2c(c1)CNC2)c1cc(Cl)cc2c1cnn2C1CCC1	0.031 µM and 0.023 µM
COC(=O)c1cc(Cl)ccc1NS(=O)(=O)c1ccc(O)cc1	> 99.5 µM
CC(C)(C)NC(=O)[C@H](Nc1cccc(-c2nn[nH]n2)c1)c1cc(Cl)cc(NC(=O)OCc2ccccc2)c1	27.8 µM
O=C(NCC(F)F)[C@H](Nc1ccc2c(c1)CNC2)c1cc(Cl)cc(Cl)c1Cl	0.069 µM and 0.065 µM
NCc1cccc(NC(=O)c2cc(Br)cc3[nH]ccc23)c1	4.73 µM
O=C(Nc1cc(-c2cccnc2)ccn1)c1cccc(C2CC2)c1	> 25 µM
CCn1ncc2c(C(=O)Nc3ccc4c(c3)CNC4)cc(C)nc21	4.41 µM
O=C(Nc1ccc2c(c1)CNC2)c1cccc2nc(O)ccc12	0.204 µM
CC(=O)N[C@H](C(=O)N[C@H]1C(=O)O[C@H]1C)c1ccc(OCc2ccccc2)cc1	> 99.5 µM
Cc1c(C(=O)Nc2ccc3c(c2)CCCC(=O)N3C)cc(C2CC2)n1C	> 25 µM
O=C(Nc1ccc(Cl)cc1C(=O)O)c1ccc(Oc2ccccc2Cl)cc1	> 99.5 µM
CC(C)(C)OC(=O)NCc1cc(NC(=O)c2cc(Cl)cc(NC(=O)OCc3ccccc3)c2)cc(-c2nn[nH]n2)c1	11.5 µM

SMILES	IC50
CN(C)Cc1cccc(NC(=O)[C@H](NC(=O)OCc2ccccc2)c2ccc(OCc3ccccc3)cc2)c1	> 99.5 µM
O=C(Nc1ccc2c(c1)CNC2)c1ccc2[nH]cc(C3CCNCC3)c2c1	0.797 µM and 1.06 µM
O=C(Nc1ccc2c(c1)CNC2)c1cc(Cl)cc2nn(C3CCOCC3)cc12	0.132 µM
Cc1cccc(-c2nc3c(C(=O)Nc4ccc5c(c4)CNC5)cc(F)cc3[nH]2)c1	0.112 µM and 0.159 µM
C[C@@H](Cc1c[nH]c2ccccc12)N1CC[C@H](c2c[nH]c3ccccc23)C1	> 99.5 µM
COCC(=O)N1CCC([C@@H](NC(=O)OCc2ccccc2)C(=O)Nc2cccc(CN)c2)CC1	> 99.5 µM
O=C(Nc1ccc2c(c1)CNC2)c1cc(Cl)cc2c1NCCC2	0.151 µM
COc1c(C(=O)N(C)C)cc(Cl)cc1S(=O)(=O)Nc1cccc(-c2nnn[nH]2)c1	> 99.5 µM
Cc1csc(COc2cccc([C@H](NC(=O)OCc3ccccc3)C(=O)Nc3cccc(CN)c3)c2)n1	29.8 µM
O=C(Nc1cc(Cl)cc(C(=O)Nc2ccccc2[C@@H]2C[C@H]2C(=O)O)c1)OCc1ccccc1	> 99.5 µM
O=C(O)COc1cc2c(cc1Cc1c[nH]c3ccc(Cl)cc13)OCO2	> 99.5 µM
Cn1ccnc1COc1cccc([C@H](NC(=O)OCc2ccccc2)C(=O)Nc2cccc(CN)c2)c1	> 99.5 µM
C=CCNC(=O)C1(NC(=O)c2cccc3c2CC(=O)N3)CCCCC1	> 25 µM
O=C(O)c1nccn2ncc(Cc3c[nH]c4ccc(Cl)cc34)c12	> 99.5 µM
CC1(C)C[C@H](C(=O)Nc2ccc3c(c2)C(=O)OC3)CCN1	> 25 µM
COC(=O)C(C)(C)NC(=O)[C@H](Nc1ccc2c(c1)CNC2)c1cc(Cl)cc(C2CC2)c1	8.99 µM
CSc1cc(Cl)cc(C(=O)Nc2cccc(CN)c2)c1	10.4 µM
NC[C@H]1C[C@@H]1NC(=O)c1cc(Cl)cc(NC(=O)OCc2ccccc2)c1	21.5 µM
c1cncc(CN2CC[C@H](NCc3c[nH]c4ccccc34)C2)c1	> 99.5 µM
NCc1ccc2c(c1)[C@H]1OCCC[C@H]1[C@H](c1cc(Cl)cc(NC(=O)OCc3ccccc3)c1)N2	6.91 µM
CS(=O)(=O)N1CC[C@]2(C1)C(=O)Nc1cccc(C(=O)Nc3ccc4c(c3)CNC4)c12	0.369 µM
CCNC(=O)Nc1cc(Cl)cc(C(=O)Nc2ccc3c(c2)CNCCO3)c1	0.749 µM
Clc1ccc2[nH]cc(Cc3ccc4c(c3)CNC4)c2c1	> 99.5 µM
CCN1C(=O)CCc2cc(NS(=O)(=O)c3ccc(Cl)cc3C(=O)O)ccc21	> 99.5 µM
Clc1cc(Cl)c2c(CN3CCC(c4cscn4)CC3)c[nH]c2c1	74.3 µM
CC(C)(C)NC(=O)[C@H](Nc1ccc2c(c1)CNC2)c1cc(Cl)cc(C2CC2)c1	4.69 µM

SMILES	IC50
Cc1nc(COc2ccc([C@@H](NC(=O)OCc3ccccc3)C(=O)Nc3cccc(CN)c3)cc2)cs1	> 99.5 µM
NCCCc1ccnc(NC(=O)c2cc(Cl)cc(NC(=O)OCc3ccccc3)c2)c1	18.4 µM
CCN1CCN(c2ccc(NS(=O)(=O)c3ccc(Cl)cc3C(=O)O)cc2)CC1	> 99.5 µM
O=C1Cc2c(cccc2C(=O)Nc2ccc(O[C@H]3CCOC3)nc2)N1	> 25 µM
CCn1cc(C(=O)Nc2ccccc2)nc(N2CC[C@@H](CO)C2)c1=O	> 99.5 µM
Nc1ccc(NC(=O)c2cc(Cl)cc3[nH]ncc23)cn1	> 99.5 µM
O=C(O)c1cc(Cl)ccc1NS(=O)(=O)c1ccc(-c2cc[nH]n2)cc1	> 99.5 µM
NCc1cccc(NC(=O)[C@@]23C[C@@H](NC(=O)OCc4ccccc4)C[C@@H]2C3)c1	> 99.5 µM
CC(=O)N1CCN([C@H]2CC[C@H](NS(=O)(=O)c3ccc(Cl)cc3C(=O)O)CC2)CC1	> 99.5 µM
Cc1csc(N2CCN(Cc3c[nH]c4ccccc34)CC2)n1	> 99.5 µM
CCCN1C(=O)[C@](C#N)(Nc2cccc(-c3nn[nH]n3)c2)c2cc(Cl)ccc21	> 99.5 µM
O=C(O)c1cc(Cl)ccc1S(=O)(=O)Nc1ccc(N2CCCS2(=O)=O)cc1	> 99.5 µM
CCn1c(=O)c(N2C[C@H]3CCCN3C(=O)[C@H]2C)nc2ccccc21	> 99.5 µM
O=C(N[C@@H](C(=O)NCc1cccc2c1CCNC2)c1ccc(OCc2ccccc2)cc1)OCc1ccccc1	39.4 µM
CCn1cc(-c2cncc(OC)c2)nc(N2CC[C@@H](CO)C2)c1=O	> 99.5 µM
CCn1c(=O)c(N2C[C@@H]3[C@H](C2)[C@H]2CC[C@@H]3O2)nc2ccccc21	> 99.5 µM
Cc1cc(C(=O)Nc2cccc(CN)c2)nc(C)n1	> 99.5 µM
NCc1cccc(NC(=O)[C@H]2[C@H]3CCCCC[C@H]3[C@H]2NC(=O)OCc2ccccc2)c1	41.3 µM and 51.2 µM and 13 µM and 11.9 µM
O=C(Nc1ccc2c(c1)CN[C@H]2CO)c1cc(F)cc2[nH]ncc12	0.125 µM
O=C1Cc2c(cccc2C(=O)N[C@H]2CCC[C@@H](C(=O)NC3CC3)C2)N1	> 25 µM
CCn1c(=O)c(N2CC[C@@]23CCN(C)C3)nc2ccccc21	> 99.5 µM
CC(C)(C)OC(=O)N1Cc2ccc(NC(=O)c3cc(Cl)cc4[nH]ncc34)cc2C1	> 25 µM
NCCc1ccc(NC(=O)c2cc(Cl)cc3[nH]ncc23)cc1	3.78 µM
O=S(=O)(Cc1nnc(Cc2ccccc2)o1)c1ccc(O)cc1	> 99.5 µM
NCCCc1ccnc(NC(=O)c2csc(C3CC3)n2)c1	> 99.5 µM
O=C(O)c1nn(-c2ccccc2)cc1Cc1c[nH]c2ccc(Cl)cc12	> 99.5 µM

SMILES	IC50
NCc1cccc(NC(=O)c2cccc3c2O[C@H](c2ccccc2)C(=O)N3)c1	56.4 µM
CCn1c(=O)c(N2CCC[C@H]2c2ncccn2)nc2ccccc21	> 99.5 µM
O=C(Nc1ccc2c(c1)CNC2)c1cc(F)cc2[nH]cnc12	0.176 µM
COCc1cc(Cl)ccc1NS(=O)(=O)c1ccc(Oc2ccccc2Cl)cc1	> 99.5 µM
CCn1cc(C#N)nc(N2CC[C@@H](CO)C2)c1=O	> 99.5 µM
N[C@H]1CCN(c2cccc(CNC(=O)c3ccc4[nH]c(=O)[nH]c4c3F)n2)C1	> 99.5 µM
N#Cc1csc(CSc2nnc(C(F)(F)F)s2)n1	> 99.5 µM
Cc1cc(C(=O)Nc2cccc(CN)c2)cc(O)n1	> 99.5 µM
c1ccc2c([C@H]3CCN(CCC4CCOCC4)C3)c[nH]c2c1	> 99.5 µM
NCc1cc(NC(=O)c2cc(Cl)cc(NC(=O)OCc3ccccc3)c2)cc(-c2ccc3c(c2)C[C@H](C(=O)O)CO3)c1	> 99.5 µM
CC(C)CNC(=O)[C@H](Nc1cccc(-c2nnn[nH]2)c1)c1cc(Cl)cc(C2CC2)c1	> 99.5 µM
O=C(O)c1cc(Cl)c(F)cc1S(=O)(=O)Nc1ccc(Oc2ccccc2Cl)cc1	33.5 µM and 34.2 µM
CN1Cc2cc(NC(=O)c3cc(Cl)cc4[nH]ncc34)ccc2C1(C)C	7.29 µM
NCc1nc(-c2ccc(NC(=O)c3cc(Cl)cc(NC(=O)OCc4ccccc4)c3)cc2)n[nH]1	> 99.5 µM
COc1cc(C(=O)Nc2cccc(CN)c2)cc2cn(C)nc12	> 99.5 µM
CCC1([C@H](NC(=O)OCc2ccccc2)C(=O)NCc2cccc(CN)c2)CCCCC1	> 99.5 µM
Cc1cc(C(=O)Nc2ccc3c(c2)CNC3)cc2nn[nH]c12	3.34 µM
O=C1Cc2cc(C(=O)Nc3ccc4c(c3)CNC4)c(Cl)cc2N1	> 25 µM
N[C@H]1CC[C@@H](NC(=O)[C@@H](NC(=O)OCc2ccccc2)c2ccc(OCc3ccccc3)cc2)C1	> 99.5 µM
NCc1cccc(NC(=O)[C@@H](NC(=O)OCc2ccccc2)c2ccc(C3=CCCOC3)cc2)c1	68.7 µM
COc1ccc(C)cc1S(=O)(=O)N[C@@H](C(=O)Nc1cccc(CN)c1)c1ccc(OCc2ccccc2)cc1	54.6 µM
COC(=O)c1cc2c(cc1NC(=O)c1cc(F)cc3[nH]ncc13)CNC2	0.05 µM and 0.029 µM
C[C@H]1CN(C(=O)Cc2ccc(C=O)[nH]2)CCN1C1CCCC1	> 99.5 µM
CC(C)(C)NC(=O)[C@H](Nc1ccc2c(c1)CNC2)c1cc(Cl)cc2[nH]ncc12	3.12 µM
CCCCCn1cc(C(=O)Nc2cccc(CN)c2)c2ccccc21	70.4 µM

From ChEMBL document CHEMBL5604062, “ASAP - ZIKV NS2B-NS3 protease fluorescence dose response” (2024)
